Assays:
[1] = test system: atrophic or neovascular AMD; details: group with the highest dietary intake of either carotenoid; cited from earlier work
[2] = test system: VEGF; details: mice with the highest survival rates; cited from earlier work
[3] = test system: sarcoma S-180 cells; details: high dose; cited from earlier work
[4] = test system: MMP2; details: mice with the highest survival rates; cited from earlier work
[5] = test system: bFGF; details: mice with the highest survival rates; cited from earlier work
[6] = test system: thyroid nodule localized to the right side of the thyroid gland; assay: Case 2: subject with thyroid nodule given the preferred embodiment; assay type: in vivo; details: increasing doses, before the preferred embodiment
Text: […]

For `CC1=C[C@H](O)CC(C)(C)[C@H]1/C=C/C(C)=C/C=C/C(C)=C/C=C/C=C(C)/C=C/C=C(C)/C=C/C1=C(C)C[C@@H](O)CC1(C)C` [lutein], the “reduction in the risk of developing atrophic or neovascular AMD” value [1] is listed as “forty”.

In the case of `O=C1O[C@H]([C@@H](O)CO)C(O)=C1O` [vitamin C, ascorbic acid], the “inhibition of expression of VEGF gene” value [2] is given as 7 times, the “increase of survival rate as compared to control models” value [3] is given as 20% and the “inhibition of expression of MMP2 gene” value [4] is given as 4 times. For the same compound, the “inhibition of expression of bFGF gene” value [5] was 0.3 times.

In the case of `CC1=C(/C=C/C(C)=C/C=C/C(C)=C/C=C/C=C(C)/C=C/C=C(C)/C=C/C2=C(C)C[C@@H](O)CC2(C)C)C(C)(C)C[C@H](O)C1` [zeaxanthin], the “reduction in the risk of developing atrophic or neovascular AMD” value [1] is given as “forty”.

With `N[C@@H](Cc1cc(I)c(Oc2cc(I)c(O)c(I)c2)c(I)c1)C(=O)O` [levothyroxine sodium] the “effect on growth of the thyroid nodule” value [6] was “did not seem to inhibit the growth of the nodule”.
